Where a name gives a salt, the structure may show the parent alone.

The text below walks through data of ChEMBL document CHEMBL4028801, “A multifactorial approach to hepatobiliary transporter assessment enables improved therapeutic compound development” (Toxicol Sci, 2013).

The target in experiment [1] is T1, ATP-binding cassette sub-family C member 4 (Homo sapiens, UniProt O15439).
T1 sequence (O15439 whole entry): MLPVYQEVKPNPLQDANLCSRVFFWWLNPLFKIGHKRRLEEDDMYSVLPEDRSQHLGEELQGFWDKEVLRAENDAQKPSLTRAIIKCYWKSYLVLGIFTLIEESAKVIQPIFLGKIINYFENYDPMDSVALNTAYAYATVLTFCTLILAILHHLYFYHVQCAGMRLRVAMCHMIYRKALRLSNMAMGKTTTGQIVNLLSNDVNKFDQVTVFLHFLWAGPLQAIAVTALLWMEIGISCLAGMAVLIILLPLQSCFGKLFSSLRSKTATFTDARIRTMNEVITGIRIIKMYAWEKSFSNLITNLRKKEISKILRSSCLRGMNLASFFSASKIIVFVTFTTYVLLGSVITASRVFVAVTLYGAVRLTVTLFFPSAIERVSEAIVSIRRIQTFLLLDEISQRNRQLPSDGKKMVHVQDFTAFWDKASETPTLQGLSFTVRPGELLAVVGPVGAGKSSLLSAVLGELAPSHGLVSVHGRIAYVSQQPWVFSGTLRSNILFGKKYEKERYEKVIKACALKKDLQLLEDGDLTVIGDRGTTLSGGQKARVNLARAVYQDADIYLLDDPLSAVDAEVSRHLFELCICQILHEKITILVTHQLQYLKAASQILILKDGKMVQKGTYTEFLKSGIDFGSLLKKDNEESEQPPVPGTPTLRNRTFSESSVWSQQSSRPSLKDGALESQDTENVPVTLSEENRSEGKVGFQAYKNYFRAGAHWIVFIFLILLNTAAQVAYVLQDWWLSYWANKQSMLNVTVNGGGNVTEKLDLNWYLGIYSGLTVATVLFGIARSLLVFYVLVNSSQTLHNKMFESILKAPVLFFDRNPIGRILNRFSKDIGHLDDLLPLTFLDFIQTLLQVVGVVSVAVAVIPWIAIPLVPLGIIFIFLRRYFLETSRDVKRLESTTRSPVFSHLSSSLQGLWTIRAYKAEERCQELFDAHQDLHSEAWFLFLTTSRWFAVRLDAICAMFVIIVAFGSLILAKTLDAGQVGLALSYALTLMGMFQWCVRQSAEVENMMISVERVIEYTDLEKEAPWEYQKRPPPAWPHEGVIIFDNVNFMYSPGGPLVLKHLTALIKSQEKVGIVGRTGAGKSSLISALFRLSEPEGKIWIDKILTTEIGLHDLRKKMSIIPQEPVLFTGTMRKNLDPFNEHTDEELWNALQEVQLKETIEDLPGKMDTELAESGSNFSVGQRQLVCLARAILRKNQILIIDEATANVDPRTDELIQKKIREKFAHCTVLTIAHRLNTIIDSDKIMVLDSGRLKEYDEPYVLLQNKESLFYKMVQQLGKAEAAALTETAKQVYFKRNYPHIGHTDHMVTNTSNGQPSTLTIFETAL
The experiment can be described thus: Inhibition of human MRP4 overexpressed in Sf9 cell membrane vesicles assessed as uptake of [3H]-estradiol-17beta-D-glucuronide in presence of ATP and GSH measured after 20 mins by membrane vesicle transport assay. It counts as ADME, cell-based.

In a further experiment the target is Bile salt export pump (Homo sapiens, UniProt O95342). The experiment can be described thus: Inhibition of human BSEP overexpressed in Sf9 cell membrane vesicles assessed as uptake of [3H]-taurocholate in presence of ATP measured after 15 to 20 mins by membrane vesicle transport assay. The experiment is classed as ADME, cell-based.
Experiment [2] concerns the target ATP-binding cassette sub-family C member 2 (Homo sapiens, UniProt Q92887). The experiment can be described thus: Inhibition of human MRP2 overexpressed in Sf9 cell membrane vesicles assessed as uptake of [3H]-estradiol-17beta-D-glucuronide in presence of ATP and GSH measured after 20 mins by membrane vesicle transport assay.
Experiment [3] concerns the target ATP-binding cassette sub-family C member 3 (Homo sapiens, UniProt O15438). Put plainly: Inhibition of human MRP3 overexpressed in Sf9 insect cell membrane vesicles assessed as uptake of [3H]-estradiol-17beta-D-glucuronide in presence of ATP and GSH measured after 10 mins by membrane vesicle transport assay. It counts as ADME, cell-based.

ATP-binding cassette sub-family C member 3, sequence (O15438 whole entry): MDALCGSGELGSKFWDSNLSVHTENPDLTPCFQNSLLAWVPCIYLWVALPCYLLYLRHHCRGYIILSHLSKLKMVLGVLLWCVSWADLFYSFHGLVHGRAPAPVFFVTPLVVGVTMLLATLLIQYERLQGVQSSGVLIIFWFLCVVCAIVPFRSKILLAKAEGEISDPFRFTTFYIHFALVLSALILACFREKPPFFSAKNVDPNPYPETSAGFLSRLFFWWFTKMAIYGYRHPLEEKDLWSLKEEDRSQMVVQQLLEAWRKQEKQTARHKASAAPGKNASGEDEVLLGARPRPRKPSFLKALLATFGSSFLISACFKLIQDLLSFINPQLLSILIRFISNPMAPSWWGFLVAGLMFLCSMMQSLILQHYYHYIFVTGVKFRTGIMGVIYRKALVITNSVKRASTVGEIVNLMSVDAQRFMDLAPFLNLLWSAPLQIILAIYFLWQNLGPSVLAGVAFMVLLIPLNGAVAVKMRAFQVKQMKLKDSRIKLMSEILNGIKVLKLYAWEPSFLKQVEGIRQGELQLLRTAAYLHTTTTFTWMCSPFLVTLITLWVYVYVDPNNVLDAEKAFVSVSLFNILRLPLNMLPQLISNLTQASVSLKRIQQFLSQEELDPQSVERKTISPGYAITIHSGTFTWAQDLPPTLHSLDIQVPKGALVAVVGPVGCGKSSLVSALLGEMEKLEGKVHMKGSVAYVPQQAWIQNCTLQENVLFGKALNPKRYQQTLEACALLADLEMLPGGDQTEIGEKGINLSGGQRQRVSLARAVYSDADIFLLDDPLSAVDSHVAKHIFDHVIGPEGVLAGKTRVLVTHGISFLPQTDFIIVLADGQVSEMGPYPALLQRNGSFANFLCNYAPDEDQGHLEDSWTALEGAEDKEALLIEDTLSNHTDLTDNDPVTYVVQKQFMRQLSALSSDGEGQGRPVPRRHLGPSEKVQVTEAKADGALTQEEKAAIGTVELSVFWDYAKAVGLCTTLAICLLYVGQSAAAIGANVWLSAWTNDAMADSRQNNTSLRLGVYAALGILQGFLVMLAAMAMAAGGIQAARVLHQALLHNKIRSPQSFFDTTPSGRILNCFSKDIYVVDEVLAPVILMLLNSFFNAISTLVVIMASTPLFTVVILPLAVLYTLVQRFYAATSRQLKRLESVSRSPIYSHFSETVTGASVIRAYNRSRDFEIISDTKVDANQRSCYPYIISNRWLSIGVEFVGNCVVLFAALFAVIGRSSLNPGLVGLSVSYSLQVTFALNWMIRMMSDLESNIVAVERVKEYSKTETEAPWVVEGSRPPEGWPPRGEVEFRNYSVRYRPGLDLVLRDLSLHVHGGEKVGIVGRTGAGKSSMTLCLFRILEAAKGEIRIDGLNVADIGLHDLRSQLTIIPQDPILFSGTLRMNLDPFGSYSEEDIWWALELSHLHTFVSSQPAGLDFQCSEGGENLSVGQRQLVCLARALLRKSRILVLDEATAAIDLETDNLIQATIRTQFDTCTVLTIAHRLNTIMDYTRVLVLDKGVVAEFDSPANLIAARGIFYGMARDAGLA
Bile salt export pump, sequence (O95342 whole entry): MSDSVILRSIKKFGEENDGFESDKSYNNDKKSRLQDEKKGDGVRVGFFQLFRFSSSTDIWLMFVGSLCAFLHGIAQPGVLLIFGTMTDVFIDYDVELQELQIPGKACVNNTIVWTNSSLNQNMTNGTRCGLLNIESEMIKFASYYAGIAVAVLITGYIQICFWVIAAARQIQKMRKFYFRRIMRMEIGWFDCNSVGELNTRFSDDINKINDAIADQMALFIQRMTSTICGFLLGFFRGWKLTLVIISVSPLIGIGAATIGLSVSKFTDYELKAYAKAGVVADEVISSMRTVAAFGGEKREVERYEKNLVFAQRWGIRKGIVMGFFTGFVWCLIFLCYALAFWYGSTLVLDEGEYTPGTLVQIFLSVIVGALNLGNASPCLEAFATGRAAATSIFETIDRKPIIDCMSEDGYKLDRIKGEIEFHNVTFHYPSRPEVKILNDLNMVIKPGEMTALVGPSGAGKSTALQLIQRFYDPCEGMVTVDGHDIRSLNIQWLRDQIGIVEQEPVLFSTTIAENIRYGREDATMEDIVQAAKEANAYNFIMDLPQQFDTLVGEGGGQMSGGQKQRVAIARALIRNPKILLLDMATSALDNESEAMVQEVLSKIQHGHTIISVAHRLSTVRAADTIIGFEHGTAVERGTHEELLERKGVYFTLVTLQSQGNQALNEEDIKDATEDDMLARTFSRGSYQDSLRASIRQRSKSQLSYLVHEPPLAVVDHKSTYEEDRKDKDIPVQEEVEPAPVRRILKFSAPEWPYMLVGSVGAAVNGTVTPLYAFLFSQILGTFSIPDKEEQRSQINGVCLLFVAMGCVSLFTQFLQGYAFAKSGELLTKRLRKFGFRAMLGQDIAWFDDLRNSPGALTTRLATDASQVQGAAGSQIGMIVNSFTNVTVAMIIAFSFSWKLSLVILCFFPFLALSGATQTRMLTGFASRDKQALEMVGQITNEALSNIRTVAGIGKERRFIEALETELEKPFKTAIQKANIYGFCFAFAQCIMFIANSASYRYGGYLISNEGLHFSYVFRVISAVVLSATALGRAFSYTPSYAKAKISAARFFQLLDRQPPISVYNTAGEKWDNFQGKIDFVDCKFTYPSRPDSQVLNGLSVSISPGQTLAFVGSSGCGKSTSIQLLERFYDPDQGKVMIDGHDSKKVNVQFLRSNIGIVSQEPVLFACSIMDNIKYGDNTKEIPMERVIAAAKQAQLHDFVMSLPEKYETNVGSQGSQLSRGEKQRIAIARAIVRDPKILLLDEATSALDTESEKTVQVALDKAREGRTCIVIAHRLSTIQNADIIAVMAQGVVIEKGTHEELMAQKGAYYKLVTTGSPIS
ATP-binding cassette sub-family C member 2, sequence (Q92887 whole entry): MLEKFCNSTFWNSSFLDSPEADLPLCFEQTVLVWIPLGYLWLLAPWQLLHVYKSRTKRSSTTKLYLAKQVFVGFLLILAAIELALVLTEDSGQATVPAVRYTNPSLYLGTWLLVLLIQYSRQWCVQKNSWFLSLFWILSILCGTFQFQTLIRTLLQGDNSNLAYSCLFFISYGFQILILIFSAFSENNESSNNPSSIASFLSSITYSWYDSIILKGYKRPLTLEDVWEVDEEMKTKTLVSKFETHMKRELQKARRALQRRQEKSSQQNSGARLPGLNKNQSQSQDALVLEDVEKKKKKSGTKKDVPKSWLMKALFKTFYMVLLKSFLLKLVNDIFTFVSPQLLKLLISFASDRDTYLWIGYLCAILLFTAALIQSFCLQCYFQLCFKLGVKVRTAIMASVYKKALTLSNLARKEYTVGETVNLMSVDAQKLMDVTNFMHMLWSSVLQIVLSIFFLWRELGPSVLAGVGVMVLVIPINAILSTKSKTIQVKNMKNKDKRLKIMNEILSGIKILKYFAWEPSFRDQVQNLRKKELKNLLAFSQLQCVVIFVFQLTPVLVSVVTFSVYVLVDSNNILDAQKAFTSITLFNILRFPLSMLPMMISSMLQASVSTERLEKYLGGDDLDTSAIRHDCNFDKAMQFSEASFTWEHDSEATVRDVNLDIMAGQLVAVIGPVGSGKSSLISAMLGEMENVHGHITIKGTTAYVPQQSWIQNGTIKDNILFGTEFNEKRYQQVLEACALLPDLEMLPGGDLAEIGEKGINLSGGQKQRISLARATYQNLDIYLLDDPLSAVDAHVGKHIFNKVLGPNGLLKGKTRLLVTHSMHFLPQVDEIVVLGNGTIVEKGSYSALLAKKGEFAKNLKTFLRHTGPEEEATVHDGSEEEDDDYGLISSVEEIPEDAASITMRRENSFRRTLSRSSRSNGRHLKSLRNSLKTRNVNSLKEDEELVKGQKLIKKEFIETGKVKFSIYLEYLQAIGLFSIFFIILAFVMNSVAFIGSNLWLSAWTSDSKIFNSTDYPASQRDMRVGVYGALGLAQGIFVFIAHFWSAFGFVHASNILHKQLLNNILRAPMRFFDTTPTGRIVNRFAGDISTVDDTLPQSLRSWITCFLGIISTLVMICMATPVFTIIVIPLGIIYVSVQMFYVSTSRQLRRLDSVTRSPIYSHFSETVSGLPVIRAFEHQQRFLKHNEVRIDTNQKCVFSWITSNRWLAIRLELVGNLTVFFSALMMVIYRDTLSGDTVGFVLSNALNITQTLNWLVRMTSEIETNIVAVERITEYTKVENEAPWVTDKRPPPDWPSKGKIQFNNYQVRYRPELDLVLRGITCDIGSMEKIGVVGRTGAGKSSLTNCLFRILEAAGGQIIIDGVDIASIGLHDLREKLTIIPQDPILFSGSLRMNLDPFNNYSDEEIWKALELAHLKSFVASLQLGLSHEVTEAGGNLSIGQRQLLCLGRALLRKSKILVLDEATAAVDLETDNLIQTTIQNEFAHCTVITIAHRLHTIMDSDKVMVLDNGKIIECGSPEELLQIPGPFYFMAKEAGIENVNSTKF

`COC(=O)[C@H](c1ccccc1Cl)N1CCc2sccc2C1` [CLOPIDOGREL BISULFATE]: the IC50 is more than 133 µM in experiment [1], 72 µM on Bile salt export pump, more than 133 µM in experiment [2] and more than 133 µM in experiment [3].
Regarding `CC(C)OC(=O)OCOP(=O)(CO[C@H](C)Cn1cnc2c(N)ncnc21)OCOC(=O)OC(C)C` [TENOFOVIR DISOPROXIL FUMARATE], the IC50 (in experiment [1]; on Bile salt export pump; in experiment [2]; in experiment [3]) was more than 133 µM in each case.
With `CC(=O)Oc1ccccc1C(=O)O` [ASPIRIN], the IC50 (in experiment [1]; on Bile salt export pump; in experiment [2]; in experiment [3]) was more than 133 µM in each case.
As for `Nc1nc(Cl)nc2c1ncn2[C@H]1C[C@H](O)[C@@H](CO)O1` [CLADRIBINE], the concentration for half-maximal inhibition (IC50) (in experiment [1]; at Bile salt export pump; in experiment [2]; in experiment [3]) was more than 133 µM in each case.
As for `CN(C)CCC=C1c2ccccc2CCc2ccccc21` [AMITRIPTYLINE], the concentration for half-maximal inhibition (IC50) (in experiment [1]; at Bile salt export pump; in experiment [2]; in experiment [3]) was more than 133 µM each time.
Regarding `CCN(CC)CCNC(=O)c1cc(S(C)(=O)=O)ccc1OC` [TIAPRIDE], the half-maximal inhibitory concentration (IC50) (in experiment [1]; on Bile salt export pump; in experiment [2]; in experiment [3]) was more than 133 µM throughout.
For `COc1ccc2[nH]cc(CCNC(C)=O)c2c1` [MELATONIN], the IC50 (in experiment [1]; on Bile salt export pump; in experiment [2]; in experiment [3]) was more than 133 µM each time.
For the molecule `CN(C)/N=N/c1[nH]cnc1C(N)=O` [DACARBAZINE], the 50% inhibitory concentration (IC50) (in experiment [1]; on Bile salt export pump; in experiment [2]; in experiment [3]) was more than 133 µM in each case.
Consider `CN1C(C(=O)Nc2ccccn2)=C(O)c2sc(Cl)cc2S1(=O)=O` [LORNOXICAM], for which the concentration for half-maximal inhibition (IC50) in experiment [1] is more than 133 µM; on Bile salt export pump, 7.56 µM; in experiment [2] it was more than 133 µM; in experiment [3], more than 133 µM.
Consider `COc1cc(Cc2cnc(N)nc2N)cc(OC)c1OC` [TRIMETHOPRIM], for which the IC50 (in experiment [1]; at Bile salt export pump; in experiment [2]; in experiment [3]) was more than 133 µM throughout.
Regarding `C[C@H]1C[C@@H]2[C@H]([C@@H](O)C[C@@]3(C)[C@H]2CC[C@]3(O)C(=O)CO)[C@@]2(C)C=CC(=O)C=C12` [METHYLPREDNISOLONE], the half-maximal inhibitory concentration (IC50) is 41 µM in experiment [1], more than 133 µM at Bile salt export pump, more than 133 µM in experiment [2] and more than 133 µM in experiment [3].
Turning to `CCn1cc(C(=O)O)c(=O)c2cc(F)c(N3CCN(C)CC3)cc21` [PEFLOXACIN], the IC50 (in experiment [1]; at Bile salt export pump; in experiment [2]; in experiment [3]) was more than 133 µM throughout.
For `CCN(C(C)=O)c1cccc(-c2ccnc3c(C#N)cnn23)c1` [ZALEPLON], the half-inhibitory concentration (IC50) (in experiment [1]; on Bile salt export pump; in experiment [2]; in experiment [3]) was more than 133 µM in each case.
For the molecule `OCC(CO)N[C@H]1C[C@](O)(CO)[C@@H](O)[C@H](O)[C@H]1O` [VOGLIBOSE], the IC50 (in experiment [1]; on Bile salt export pump; in experiment [2]; in experiment [3]) was more than 133 µM each time.
With `CC(c1cc2ccccc2s1)N(O)C(N)=O` (stereo not drawn) [ZILEUTON], the IC50 (in experiment [1]; on Bile salt export pump; in experiment [2]; in experiment [3]) was more than 133 µM throughout.
With `CS(=O)(=O)N1CCN(Cc2cc3nc(-c4cccc5[nH]ncc45)nc(N4CCOCC4)c3s2)CC1`, the 50% inhibitory concentration (IC50) in experiment [1] is 2.7 µM; at Bile salt export pump, 15.2 µM; in experiment [2] it was more than 133 µM; in experiment [3], more than 133 µM.
As for `O=C(O)Cc1ccc(-c2ccccc2)cc1` [FELBINAC], the IC50 is 8.2 µM in experiment [1], more than 133 µM on Bile salt export pump, more than 133 µM in experiment [2] and more than 133 µM in experiment [3].
As for `COc1ccc(-c2ccc3cc(C(=O)O)ccc3c2)cc1C12CC3CC(CC(C3)C1)C2`, the half-inhibitory concentration (IC50) (in experiment [1]; on Bile salt export pump; in experiment [2]; in experiment [3]) was more than 133 µM throughout.
Consider `O=C(Cn1ccnc1[N+](=O)[O-])NCc1ccccc1` [BENZNIDAZOLE], for which the IC50 (in experiment [1]; on Bile salt export pump; in experiment [2]; in experiment [3]) was more than 133 µM each time.
Take `Cc1noc(NS(=O)(=O)c2ccc(N)cc2)c1C` [SULFISOXAZOLE]: the IC50 (in experiment [1]; on Bile salt export pump; in experiment [2]; in experiment [3]) was more than 133 µM throughout.
As to `CN1C(C(=O)Nc2ccccn2)=C(O)c2sccc2S1(=O)=O` [TENOXICAM], the IC50 (in experiment [1]; on Bile salt export pump; in experiment [2]; in experiment [3]) was more than 133 µM in each case.
With `CN1CCN(c2c(F)cc3c(=O)c(C(=O)O)cn(CCF)c3c2F)CC1` [FLEROXACIN], the IC50 (in experiment [1]; on Bile salt export pump; in experiment [2]; in experiment [3]) was more than 133 µM each time.
With `NCC(CC(=O)O)c1ccc(Cl)cc1` (stereo not drawn) [BACLOFEN], the half-inhibitory concentration (IC50) (in experiment [1]; at Bile salt export pump; in experiment [2]; in experiment [3]) was more than 133 µM each time.
`CCN1CCCC1CNC(=O)c1cc(S(=O)(=O)CC)c(N)cc1OC` (stereo not drawn) [AMISULPRIDE]: the half-inhibitory concentration (IC50) (in experiment [1]; on Bile salt export pump; in experiment [2]; in experiment [3]) was more than 133 µM in each case.
As for `C=CC[N+]1([C@H]2C[C@H]3[C@@H]4CC[C@H]5C[C@H](O)[C@@H](N6CCOCC6)C[C@]5(C)[C@H]4CC[C@]3(C)[C@H]2OC(C)=O)CCCC1` [ROCURONIUM BROMIDE], the IC50 (in experiment [1]; on Bile salt export pump; in experiment [2]; in experiment [3]) was more than 133 µM each time.
For the molecule `OCCN1CCN(CCCN2c3ccccc3Sc3ccc(Cl)cc32)CC1` [PERPHENAZINE], the concentration for half-maximal inhibition (IC50) (in experiment [1]; at Bile salt export pump; in experiment [2]; in experiment [3]) was more than 133 µM throughout.
Turning to `CCOC(=O)[N-]c1cn(N2CCOCC2)n[o+]1` [MOLSIDOMINE], the IC50 (in experiment [1]; on Bile salt export pump; in experiment [2]; in experiment [3]) was more than 133 µM in each case.
With `CCOC(=O)c1ncn2c1CN(C)C(=O)c1cc(F)ccc1-2` [FLUMAZENIL], the IC50 (in experiment [1]; on Bile salt export pump; in experiment [2]; in experiment [3]) was more than 133 µM in each case.
Regarding `Oc1c(I)cc(Cl)c2cccnc12` [CLIOQUINOL], the half-maximal inhibitory concentration (IC50) (in experiment [1]; on Bile salt export pump; in experiment [2]; in experiment [3]) was more than 133 µM in each case.
`CN(CCOc1ccc(NS(C)(=O)=O)cc1)CCc1ccc(NS(C)(=O)=O)cc1` [DOFETILIDE]: the IC50 (in experiment [1]; at Bile salt export pump; in experiment [2]; in experiment [3]) was more than 133 µM throughout.
On to `S=P(N1CC1)(N1CC1)N1CC1` [THIOTEPA], for which the IC50 (in experiment [1]; at Bile salt export pump; in experiment [2]; in experiment [3]) was more than 133 µM each time.
For `C[C@@H]1CN(c2c(F)c(N)c3c(=O)c(C(=O)O)cn(C4CC4)c3c2F)C[C@H](C)N1` [SPARFLOXACIN], the IC50 (in experiment [1]; on Bile salt export pump; in experiment [2]; in experiment [3]) was more than 133 µM throughout.

In general, IC50 refers to the concentration that inhibits the measured activity by half.
